The values that follow come from patent US20210371827A1, “METHOD FOR PREPARING CANCER STEM CELL SPHEROIDS” (KOREA ADVANCED INSTITUTE OF SCIENCE AND TECHNOLOGY, priority 2018, published 2021).

What all share (test): Cell viability for doxorubicin (WST-1)
Holding throughout (format): cell-based, human

Experiment [1] has as its system SW480-ssiCSC. Conditions: various concentrations, 24 hours. The procedure: (§1) ssiCSC spheroids prepared from different kinds of cancer cells (SKOV3, MCF-7, Hep3B and SW480) were isolated using trypsin (TrypLE Express, Gibco), and the isolated cells were washed with D-PBS twice. The ssiCSC was plated on a 96-well plate (1×10^4 cells/well) and was cultured in a cell growth medium at 37° C. for 24 hours. Then, the medium was removed, and a new medium comprising various concentrations of doxorubicin was added to each well and cultured for 24 hours. Next, each well was washed with D-PBS and was replaced with a new cell growth medium of 100 μl, and then WST-1 cell proliferation reagent (Roche) of 10 μl was added and cultured for 4 hours. Then, the absorbance at 450 nm (standard wavelength, 600 nm) was measured using a microplate reader (Molecular Devices).
(§2) In addition, the drug resistance of ssiCSC for doxorubicin (DOX) known as an anticancer agent was confirmed. Specifically, ssiCSC spheroids prepared by culturing on the pV4D4 surface for 8 days were isolated to single cells, and the cell was cultured on the conventional TCP surface to a 2D single layer, and then DOX at various concentrations was treated for 24 hours. […] The SW480-ssiCSC maintained drug resistance when subcultured on the TCP surface twice, and through this, it can be seen that original cancer cells were transformed into CSC-like cells (FIG. 12c).

The test system of experiment [2] is SKOV3-ssiCSC. Conditions: various concentrations, 24 hours. The procedure:
as §1, §2

Experiment [3] deals with ssiCSC (SKOV3, MCF-7, Hep3B and SW480). Conditions: 50 μM, 24 hours; compared to the 2D control group. The procedure:
as §1, §2

Consider `COc1cccc2c1C(=O)c1c(O)c3c(c(O)c1C2=O)C[C@@](O)(C(=O)CO)C[C@@H]3O[C@H]1C[C@H](N)[C@H](O)[C@H](C)O1` [Dox, doxorubicin], for which the “drug resistance (cell viability)” value in experiment [1] is “complete resistance”; in experiment [2], “complete resistance”; in experiment [3], “higher resistance”.
